Consider 18 molecules from PubChem BioAssay (NCI).

Test systems include KM20L2 colon; LXFL 529 NSCLC; RXF-631 renal; SNB-78 CNS; DMS 273 small cell lung; P388 leukemia; P388/ADR leukemia; SN12K1 renal.
What all share (experiment): NCI tumour cell line growth inhibition, 48 h

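96-well plates; 48 h exposure; 5 concentrations. Endpoints by linear interpolation between flanking doses. Not reached: highest tested concentration assigned. The concentration for 50% growth inhibition is given as GI50. TGI: total growth inhibition.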 Some results are limits rather than exact numbers.

`C/C=C(/I)CBr`: the TGI with KM20L2 colon came to 88.5 µM; with LXFL 529 NSCLC, 27.6 µM; in the assay on RXF-631 renal it was 36.2 µM; in the assay with SNB-78 CNS, 93.9 µM.

Turning to `[N-]=[N+]=NC(c1cn(C2CC(O)C(CO)O2)c(=O)[nH]c1=O)C(Br)Br` (stereo unspecified), the TGI in the assay on DMS 273 small cell lung, with KM20L2 colon, in the assay with LXFL 529 NSCLC and in the assay with SNB-78 CNS was more than 100 µM each time.

Take `CCOc1ccc2[nH]c3c(C)c4ccncc4c(C)c3c2c1`: the TGI was determined as 1.64 µM in the assay with DMS 273 small cell lung; 2.56 µM in the assay on KM20L2 colon; 1.98 µM in the assay with LXFL 529 NSCLC; 2.61 µM in the assay on RXF-631 renal; 3.12 µM in the assay on SNB-78 CNS.

Take `Brc1ccc(C[P+]2(c3ccccc3)CCCCC2)cc1`: the TGI with DMS 273 small cell lung is more than 100 µM; with KM20L2 colon, more than 100 µM; with LXFL 529 NSCLC, more than 100 µM; in the assay on SNB-78 CNS, 84.2 µM.

For `COc1ccc(C(=O)O[C@H]2[C@@H]3C=CO[C@@H](OC4OC(CO)C(O)C(O)C4O)[C@@H]3[C@@]3(CO)O[C@@H]23)cc1O` (stereo partly specified), the TGI with DMS 273 small cell lung, in the assay with KM20L2 colon, with LXFL 529 NSCLC, in the assay on RXF-631 renal and with SNB-78 CNS was more than 100 µM each time.

With `NC(=S)/N=C(/c1nc2ccc(Cl)cc2[nH]c1=O)C(O)c1ccccc1Cl` (stereo unspecified), the TGI with DMS 273 small cell lung, in the assay on KM20L2 colon and in the assay with LXFL 529 NSCLC was more than 100 µM throughout.

Regarding `CN(C(=O)C12C3C4C5C3C1(C(=O)C13C6C7C8C6C1C8C73)C5C42)C(C)(C)C` (stereo unspecified), the TGI is more than 30 µM in the assay with DMS 273 small cell lung, more than 50 µM in the assay on KM20L2 colon, more than 50 µM in the assay with LXFL 529 NSCLC and more than 50 µM with SNB-78 CNS.

On to `COc1ccc(N=NC(C(=O)c2ccccc2)C(=O)c2ccccc2)cc1`, for which the TGI with DMS 273 small cell lung is 56.7 µM; in the assay on KM20L2 colon it was 64 µM; in the assay on LXFL 529 NSCLC it was more than 100 µM; in the assay on RXF-631 renal it was more than 100 µM.

`COC(=O)/C=C(C)/C=C/C1OC(C)OCC1O` (stereo unspecified): the TGI in the assay with DMS 273 small cell lung, with KM20L2 colon, with LXFL 529 NSCLC and in the assay on SNB-78 CNS was more than 100 µM each time.

For `Cc1c2ccncc2cc2c1[nH]c1ccccc12`, the TGI with DMS 273 small cell lung was 4.96 µM; in the assay with KM20L2 colon, 22.4 µM; in the assay on P388 leukemia, 5.52 µM; with P388/ADR leukemia it was 7.46 µM; in the assay on SN12K1 renal it was 9.44 µM; in the assay with SNB-78 CNS, 93.3 µM.

Consider `CCOC(=O)C(=O)Nc1ccccc1C`, for which the TGI in the assay with KM20L2 colon, with LXFL 529 NSCLC, in the assay on RXF-631 renal and with SNB-78 CNS was more than 100 µM throughout.

`N#CN/C(N)=N/C/N=C(\N)NC#N`: the TGI with DMS 273 small cell lung, in the assay on KM20L2 colon, in the assay on LXFL 529 NSCLC, with RXF-631 renal and in the assay on SNB-78 CNS was more than 100 µM throughout.

As for `CCN(CC)CCCNc1ccc2nc(C)n3c4ccc(O)cc4c(=O)c1c23`, the TGI turned out to be 13.4 µM in the assay with DMS 273 small cell lung; 17.1 µM in the assay on KM20L2 colon; 19.3 µM in the assay with LXFL 529 NSCLC; 17.4 µM in the assay with RXF-631 renal; 19.6 µM in the assay on SNB-78 CNS.

In the case of `NC1=C(NC(=O)Cc2ccccc2F)C(=O)c2ccccc2C1=O`, the TGI in the assay with DMS 273 small cell lung and with KM20L2 colon was more than 100 µM throughout.

In the case of `CC1=Nc2c(ccc3c2C(=O)c2ccccc2C3=O)NC(c2cccc3c2CCC3)C1` (stereo unspecified), the TGI with DMS 273 small cell lung, in the assay with KM20L2 colon, in the assay on LXFL 529 NSCLC, with RXF-631 renal and in the assay on SNB-78 CNS was more than 100 µM in each case.

On to `CN(Cc1cnc2nc(N)nc(N)c2n1)c1ccc(C(=O)N[C@@H](CCC(=O)O)C(=O)O)cc1`, for which the TGI in the assay with DMS 273 small cell lung is 210 µM; in the assay on KM20L2 colon, more than 250 µM; with LXFL 529 NSCLC, more than 250 µM; in the assay with P388 leukemia, 13.8 µM; in the assay with P388/ADR leukemia it was 29.4 µM; in the assay with SN12K1 renal it was 191 µM. This molecule had a TGI with SNB-78 CNS of 213 µM. The molecule further showed a GI50 in the assay with KM20L2 colon of 0.0025 µM.

Consider `CC(=O)OCC1OC(n2cc(F)c(=O)[nH]c2=O)C(NC(=O)OCc2ccccc2)C(OC(C)=O)C1OC(C)=O` (stereo unspecified), for which the TGI in the assay with DMS 273 small cell lung, with KM20L2 colon, with P388 leukemia, in the assay with P388/ADR leukemia, in the assay with SN12K1 renal and in the assay with SNB-78 CNS was more than 100 µM each time.

Consider `CC1=C(C(=O)CC(=O)C(=O)Nc2cc(C)ccc2C)Sc2ccccc2N1`, for which the TGI in the assay on LXFL 529 NSCLC, with RXF-631 renal and with SNB-78 CNS was more than 100 µM each time.
